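Five compound concentrations were applied to cells in 96-well plates for 48 hours; endpoints were derived by simple linear interpolation of the resulting dose-response curve. Definition used: TGI = concentration required for complete inhibition of growth.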
Legend:
Assay in all cases: NCI anticancer screen, dose series, 48 h
[1] = tested on: RXF 393 renal
[2] = tested on: K-562 leukemia
[3] = tested on: MCF7 breast
[4] = tested on: A549 NSCLC
[5] = tested on: OVCAR-8 ovarian
[6] = tested on: CAKI-1 renal
[7] = tested on: CCRF-CEM leukemia
[8] = tested on: SNB-75 CNS
[9] = tested on: U251 CNS
[10] = tested on: KM12 colon
[11] = tested on: LOX IMVI melanoma
[12] = tested on: EKVX NSCLC
[13] = tested on: IGROV1 ovarian
[14] = tested on: UO-31 renal
[15] = tested on: HL-60(TB) leukemia
[16] = tested on: BT-549 breast
[17] = tested on: SNB-19 CNS
[18] = tested on: SF-539 CNS
[19] = tested on: NCI-H460 lung
[20] = tested on: NCI-H23 lung
[21] = tested on: SK-MEL-5 melanoma
[22] = tested on: UACC-257 melanoma
[23] = tested on: SK-MEL-28 melanoma
[24] = tested on: ACHN renal
[25] = tested on: MDA-MB-435
[26] = tested on: HOP-92 NSCLC
[27] = tested on: HS 578T breast
[28] = tested on: MALME-3M melanoma
[29] = tested on: SF-268 CNS
[30] = tested on: SK-OV-3 ovarian
[31] = tested on: NCI-H522 lung
[32] = tested on: MOLT-4 leukemia
[33] = tested on: SN12C renal
[34] = tested on: HCT-15 colon
[35] = tested on: OVCAR-5 ovarian
[36] = tested on: M14 melanoma
[37] = tested on: NCI-H226 lung
[38] = tested on: SW-620 colon
[39] = tested on: PC-3 prostate
[40] = tested on: HCT-116 colon
[41] = tested on: RPMI-8226 leukemia
[42] = tested on: 786-0 renal
[43] = tested on: COLO 205 colon
[44] = tested on: A498 renal
[45] = tested on: TK-10 renal
[46] = tested on: T-47D breast
[47] = tested on: UACC-62 melanoma
[48] = tested on: OVCAR-3 ovarian
[49] = tested on: SF-295 CNS
[50] = tested on: SR leukemia
[51] = tested on: MDA-N
[52] = tested on: SK-MEL-2 melanoma
[53] = tested on: HOP-62 NSCLC
[54] = tested on: NCI/ADR-RES ovarian
[55] = tested on: MDA-MB-231 breast
[56] = tested on: DU-145 prostate
[57] = tested on: OVCAR-4 ovarian
[58] = tested on: HT29 colon
[59] = tested on: HCC-2998 colon

O=[N+]([O-])c1ccc(S(=O)(=O)Cc2ccccc2)c2nonc12
TGI [1]: 33.5 µM
TGI [2]: 76.7 µM
TGI [3]: 43 µM
TGI [4]: 83.8 µM
TGI [5]: 49 µM
TGI [6]: 38.2 µM
TGI [7]: 67.8 µM
TGI [8]: 98.5 µM
TGI [9]: 36.1 µM
TGI [10]: 38.7 µM
TGI [11]: 38.2 µM
TGI [12]: 41.8 µM
TGI [13]: 37.3 µM
TGI [14]: 45.1 µM
TGI [15]: 45.9 µM
TGI [16]: 33.1 µM
TGI [17]: > 100 µM
TGI [18]: 35.5 µM
TGI [19]: 37.8 µM
TGI [20]: 35.5 µM
TGI [21]: 36.5 µM
TGI [22]: 30.1 µM
TGI [23]: 38.5 µM
TGI [24]: 46.1 µM
TGI [25]: 40.4 µM
TGI [26]: 39.7 µM
TGI [27]: 58.5 µM
TGI [28]: 33.4 µM
TGI [29]: 39.3 µM
TGI [30]: > 100 µM
TGI [31]: 38 µM
TGI [32]: 83.8 µM
TGI [33]: 28.5 µM
TGI [34]: 51.7 µM
TGI [35]: > 100 µM
TGI [36]: 31.2 µM
TGI [37]: > 100 µM
TGI [38]: 48.6 µM
TGI [39]: 34.6 µM
TGI [40]: 31.8 µM
TGI [41]: 64.2 µM
TGI [42]: 37.5 µM
TGI [43]: 31.1 µM
TGI [44]: > 100 µM
TGI [45]: 32 µM
TGI [46]: 39.8 µM
TGI [47]: 35.1 µM
TGI [48]: 37.2 µM
TGI [49]: > 100 µM
TGI [50]: > 100 µM
TGI [51]: 40.9 µM
TGI [52]: 42.2 µM
TGI [53]: 43.1 µM
TGI [54]: 68 µM
TGI [55]: 50.7 µM
TGI [56]: 36.3 µM
TGI [57]: 34.1 µM
TGI [58]: 36.7 µM

COCCOC(=O)C(C)=[N+]=[N-]
TGI [1]: > 100 µM
TGI [2]: > 100 µM
TGI [3]: > 100 µM
TGI [5]: > 100 µM
TGI [6]: > 100 µM
TGI [8]: > 100 µM
TGI [9]: > 100 µM
TGI [10]: > 100 µM
TGI [11]: > 100 µM
TGI [12]: > 100 µM
TGI [13]: > 100 µM
TGI [14]: > 100 µM
TGI [16]: > 100 µM
TGI [17]: > 100 µM
TGI [19]: > 100 µM
TGI [20]: > 100 µM
TGI [21]: > 100 µM
TGI [22]: > 100 µM
TGI [23]: > 100 µM
TGI [24]: > 100 µM
TGI [25]: > 100 µM
TGI [27]: > 100 µM
TGI [28]: > 100 µM
TGI [29]: > 100 µM
TGI [31]: > 100 µM
TGI [33]: > 100 µM
TGI [34]: > 100 µM
TGI [35]: > 100 µM
TGI [37]: > 100 µM
TGI [38]: > 100 µM
TGI [39]: > 100 µM
TGI [40]: > 100 µM
TGI [41]: > 100 µM
TGI [42]: > 100 µM
TGI [59]: > 100 µM
TGI [43]: > 100 µM
TGI [44]: > 100 µM
TGI [45]: > 100 µM
TGI [46]: > 100 µM
TGI [47]: > 100 µM
TGI [48]: > 100 µM
TGI [49]: > 100 µM
TGI [50]: > 100 µM
TGI [51]: > 100 µM
TGI [53]: > 100 µM
TGI [54]: > 100 µM
TGI [55]: > 100 µM
TGI [56]: > 100 µM
TGI [57]: > 100 µM
TGI [58]: > 100 µM

— PubChem BioAssay (NCI)
